Like-named read-outs stand apart in the source and are kept apart here.

Among the data in patent US7238697B2, “Pyridylpyrimidines for use as pesticides” (Bayer CropScience AG, priority 2001, dated 2007) are chromatographic logP values, retold here.

A short description of this data set: log P determination by HPLC (reversed-phase C18), EEC Directive 79/831 Annex V.A8. Particulars: pH 2.3. Format: physicochemical. The procedure:
The stated log P values were determined in accordance with EEC Directive 79/831 Annex V.A8 by HPLC (High Performance Liquid Chromatography) using a reversed-phase column, (C 18). Temperature: 43° C. Mobile phases for the determination in the acidic range: 0.1% aqueous phosphoric acid, acetonitrile; linear gradient from 10% acetonitrile to 90% acetonitrile. Calibration was carried out using unbranched alkan-2-ones (having 3 to 16 carbon atoms) with known logP values (determination of the logP values by the retention times using linear interpolation between two successive alkanones).

Where [1] appears, read: reversed-phase C18 HPLC column, HPLC, reversed-phase C 18, 43° C., 0.1% aqueous phosphoric acid/acetonitrile, read-out: log P (pH 2.3).

Turning to `NC(=O)COC(=O)CSc1nccc(-c2ccccn2)n1` [Example 163], the chromatographic logP under setting [1] was 1.11.

In the case of `COCCOC(=O)CSc1nccc(-c2ccccn2)n1` [Example 20], the chromatographic logP under setting [1] came to 1.97.

On to `O=C(CSc1nccc(-c2ccccn2)n1)NCc1ccc(OC(F)(F)F)cc1` [Example 40], for which the chromatographic logP under setting [1] is 2.76. Still for that read-out and setting: the result for `O=C(CSc1nccc(-c2ccccn2)n1)OCCCl` [Example 126] reads 2.29.

As for `CCOC(=O)CSc1nccc(-c2cc(C)ccn2)n1` [Example 102], the chromatographic logP under setting [1] amounted to 2.2. In the case of `CC(C)(C)c1ccc(NC(=O)NCCOC(=O)CSc2nccc(-c3ccccn3)n2)cc1` [Example 148], the chromatographic logP under setting [1] turned out to be 3.35. For `O=C(CSc1nccc(-c2ccccn2)n1)OC1CC(F)(F)C1(F)F` (stereo not drawn) [Example 221], the chromatographic logP under setting [1] was 3.

In the case of `CN(C=O)CCOC(=O)CSc1nccc(-c2ccccn2)n1` [Example 217], the chromatographic logP under setting [1] is 1.4. On to `CCN(CC)C(=O)CSc1nccc(-c2ccccn2)n1` [Example 28], for which the chromatographic logP under setting [1] is 1.8. Take `O=C(CSc1nccc(-c2ccccn2)n1)OCCCOc1ccc(F)cc1` [Example 91]: the chromatographic logP under setting [1] is 3.59. With `C=COC(=O)CSc1nccc(-c2ccccn2)n1` [Example 17], the chromatographic logP under setting [1] turned out to be 2.37. Same read-out and setting: then `O=C(CSc1nccc(-c2ccccn2)n1)OCCC(F)(F)F` [Example 122], with 2.26; and `COC(=O)CSc1nc(-c2ccccn2)cc(-c2ccco2)n1` [Example 106], with 3.01; and `O=C(CSc1nccc(-c2ccccn2)n1)Nc1cccc([N+](=O)[O-])c1` [Example 308], with 2.25. The same measure, in the same setting: the result for `CON(C)C(=O)COC(=O)CSc1nccc(-c2ccccn2)n1` [Example 234] reads 1.97; that for `O=C(CSc1nccc(-c2ccccn2)n1)NCCc1ccc(Cl)cc1` [Example 51], 2.58. Consider `COC(=O)/C(O)=C\c1nccc(-c2ccccn2)n1` [Example 34], for which the chromatographic logP under setting [1] was found to be 1.89. As for `O=C(CSc1nccc(-c2ccccn2)n1)OCc1ccc(Cl)nc1` [Example 124], the chromatographic logP under setting [1] was determined as 2.31. Consider `CCOC(=O)CSc1nccc(-c2ncccc2C)n1` [Example 265], for which the chromatographic logP under setting [1] worked out at 1.85. Same read-out and setting: then `CC(C)(C)C(=O)OCCNC(=O)NCCCOC(=O)CSc1nccc(-c2ccccn2)n1` [Example 129], with 2.51; and `c1ccc(-c2ccnc(SCc3nn[nH]n3)n2)nc1` [Example 299], with 1.17.

As to `CCOC(=O)NCc1nccc(-c2ccccn2)n1` [Example 8, ethyl [4-(2-pyridinyl)-2-pyrimidinyl]methylcarbamate], the chromatographic logP (HPLC, reversed-phase C 18, 43° C., 0.1% aqueous phosphoric acid/acetonitrile, read-out: log P (pH 2.3)) came out at 1.14. `CCOC(=O)COc1nccc(-c2ccccn2)n1` [Example 7, ethyl {[4-(2-pyridinyl)-2-pyrimidinyl]oxy}acetate]: under setting [1], the chromatographic logP is 1.73. On the same count and under the same terms, the result for `O=C(CSc1nccc(-c2ccccn2)n1)NCc1ccc(Cl)cc1Cl` [Example 45] reads 2.69; that for `COC(=O)C[S+]([O-])c1nccc(-c2ccccn2)n1` (stereo not drawn) [Example 108], 0.89; that for `CCOC(=O)CSc1nccc(-c2ccccn2)n1` [Example 13], 2.17.

For `CCOC(=O)CSc1nccc(-c2cc(-c3ccccc3)ccn2)n1` [Example 262], the chromatographic logP under setting [1] stood at 3.54. On the same count and under the same terms, the result for `CCOC(=O)CSc1nccc(-c2cccc(Br)n2)n1` [Example 307] reads 3.31. On the same count and under the same terms, the result for `O=C(CSc1nccc(-c2ccccn2)n1)OCCN1CCCCC1` [Example 99] reads 1.04; that for `O=C(CSc1nccc(-c2ccccn2)n1)Oc1ccccc1` [Example 15], 2.88. On the same count and under the same terms, the result for `CC(C)=NNC(=O)CSc1nccc(-c2ccccn2)n1` [Example 136] reads 0.44; that for `CCOC(=O)CSc1nccc(-c2cccc(C)n2)n1` [Example 105], 2.46. As for `CC(C)COC(=O)c1cccc(NC(=O)NCCCOC(=O)CSc2nccc(-c3ccccn3)n2)c1` [Example 131], under setting [1], the chromatographic logP came out at 3.45. For `CCOC(=O)CSc1nccc(-c2cc(OC)ccn2)n1` [Example 261], the chromatographic logP under setting [1] came to 1.62. On the same count and under the same terms, the result for `O=C(CSc1nccc(-c2ccccn2)n1)NO` [Example 36] reads 0.55; that for `COCC(C)(C)COC(=O)CSc1nccc(-c2ccccn2)n1` [Example 190], 3.05. Same read-out and setting: then `CC(C)(C)C(Cl)COC(=O)CSc1nccc(-c2ccccn2)n1` (stereo not drawn) [Example 205], with 3.81; and `CN1CCC(COC(=O)CSc2nccc(-c3ccccn3)n2)O1` (stereo not drawn) [Example 220], with 1.12. The same measure, in the same setting: the result for `CC1(C)OCC(CCOC(=O)CSc2nccc(-c3ccccn3)n2)O1` (stereo not drawn) [Example 193] reads 2.46; that for `CC(C)OC(=O)C(C)OC(=O)CSc1nccc(-c2ccccn2)n1` (stereo not drawn) [Example 194], 2.95. Turning to `COC(=O)CCCCSc1nccc(-c2ccccn2)n1` [Example 79], under setting [1], the chromatographic logP worked out at 2.68. `O=C(CSc1nccc(-c2ccccn2)n1)Nc1ccc(Cl)cc1` [Example 33]: the chromatographic logP under setting [1] turned out to be 2.58. Take `O=C(CSc1nccc(-c2ccccn2)n1)N1CCCC1` [Example 68]: under setting [1], the chromatographic logP came to 1.75. Same read-out and setting: the result for `O=C(O)CSc1nccc(-c2ccccn2)n1` [Example 11] reads 1.14. The same measure, in the same setting: the result for `O=C(CSc1nccc(-c2ccccn2)n1)OCC#CCCl` [Example 207] reads 2.61; that for `O=C(CSc1nccc(-c2ccccn2)n1)NCc1ccc2c(c1)OCO2` [Example 52], 1.94; that for `Cc1ccc(C(C)NC(=O)CSc2nccc(-c3ccccn3)n2)cc1` (stereo not drawn) [Example 57], 2.48. Same read-out and setting: then `Cc1noc(C)c1CCOC(=O)CSc1nccc(-c2ccccn2)n1` [Example 252], with 2.25. Turning to `O=C(CSc1nccc(-c2ccccn2)n1)NCc1ccc(C(F)(F)F)cc1` [Example 47], under setting [1], the chromatographic logP came to 2.64. On the same count and under the same terms, then `CCOC(=O)CSc1nccc(-c2cc(C(C)(C)C)ccn2)n1` [Example 316], with 3.55; and `CCCOC(=O)CSc1nccc(-c2ccccn2)n1` [Example 16], with 2.76. As to `O=C(CSc1nccc(-c2ccccn2)n1)OCCc1noc(=O)[nH]1` [Example 250], the chromatographic logP under setting [1] was found to be 1.97.

The compound `NC(=O)OCCOC(=O)CSc1nccc(-c2ccccn2)n1` [Example 177] showed a chromatographic logP of 1.41.

As for `CCOC(=O)CSc1nccc(-c2ccc([N+](=O)[O-])cn2)n1` [Example 306], under setting [1], the chromatographic logP came out at 2.77. As to `O=C(CSc1nccc(-c2ccccn2)n1)NCc1ccc(Cl)nc1` [Example 53], the chromatographic logP under setting [1] turned out to be 1.71. On the same count and under the same terms, the result for `CCC(Sc1nccc(-c2ccccn2)n1)C(=O)OC` (stereo not drawn) [Example 25] reads 2.68; that for `COC(=O)CSc1nc(-c2ccccc2)cc(-c2ccccn2)n1` [Example 109], 3.57. For `CCOC(=O)CSc1nccc(-c2nccc3ccccc23)n1` [Example 298], the chromatographic logP under setting [1] is 2.51. Take `C/C=N/OCCOC(=O)CSc1nccc(-c2ccccn2)n1` [Example 214]: the chromatographic logP under setting [1] is 2.13.

Turning to `COC(=O)CSc1nccc(-c2ccccn2)n1` [Example 10], under setting [1], the chromatographic logP worked out at 1.81. Same read-out and setting: then `CN(C)C(=O)SCCOC(=O)CSc1nccc(-c2ccccn2)n1` [Example 178], with 2.2; and `CCC1(COC(=O)CSc2nccc(-c3ccccn3)n2)COCOC1` [Example 222], with 2.51; and `O=C(CSc1nccc(-c2ccccn2)n1)OCCCN1CCCC1=O` [Example 165], with 1.64. Turning to `COC(=O)c1ccc(NC(=O)CSc2nccc(-c3ccccn3)n2)cc1` [Example 309], the chromatographic logP under setting [1] worked out at 2.16.

Consider `O=C(NCCCOC(=O)CSc1nccc(-c2ccccn2)n1)Nc1cccc2c1CCCC2` [Example 133], for which the chromatographic logP under setting [1] came out at 3.06. Same read-out and setting: then `COC(COC(=O)CSc1nccc(-c2ccccn2)n1)OC` [Example 164], with 2.05; and `CC(C=C(Cl)Cl)OC(=O)CSc1nccc(-c2ccccn2)n1` (stereo not drawn) [Example 215], with 3.48. Turning to `C=CCOC(=O)CSc1nccc(-c2ccccn2)n1` [Example 18], the chromatographic logP under setting [1] stood at 2.4. The same measure, in the same setting: then `O=C(CSc1nccc(-c2ccccn2)n1)OCCc1ccccc1` [Example 83], with 3.37. On the same count and under the same terms, the result for `COCNC(=O)OCCOC(=O)CSc1nccc(-c2ccccn2)n1` [Example 175] reads 1.64; that for `CC(=O)O[C@H]1CCC[C@H]1OC(=O)CSc1nccc(-c2ccccn2)n1` [Example 248], 2.65; that for `CCOC(=O)CCCOC(=O)CSc1nccc(-c2ccccn2)n1` [Example 84], 2.72. The same measure, in the same setting: then `COC(=O)C(Cc1cccc(Cl)c1)Sc1nccc(-c2ccccn2)n1` (stereo not drawn) [Example 27], with 3.84. For `COC(=O)CS(=O)(=O)c1nccc(-c2ccccn2)n1` [Example 12], the chromatographic logP under setting [1] was 1.37. For `C=CCNC(=O)CSc1nccc(-c2ccccn2)n1` [Example 70], the chromatographic logP under setting [1] stood at 1.65. On the same count and under the same terms, the result for `CS(=O)(=O)c1nccc(-c2ccccn2)n1` [2-(methylsulphonyl)-4-(2-pyridinyl)pyrimidine] reads 0.99; that for `CCNC(=O)COC(=O)CSc1nccc(-c2ccccn2)n1` [Example 231], 1.97. On to `CC1(COC(=O)CSc2nccc(-c3ccccn3)n2)COC1` [Example 158], for which, under setting [1], the chromatographic logP was 1.98.
